Measured values as given in US12091402B2 (Avilar Therapeutics, Inc., priority 2021, dated 2024).
Like-named read-outs stand apart in the source and are kept apart here. *1 amine or outer side, *2 acyl side, *3 side chain or, on linkers, in order; H or OH if unused. Where a SMILES comes first, the peptide text is derived from it. Bridges are numbered along the chain shown (N, C = ends). [ ]: non-standard residue; d: D form. The star is where a group is joined. X2 = O=C(CCOCC(COCCC(=O)NCCOCCOCCOCCOC[C@H]1OC[C@H](Nc2cncc(C(F)(F)F)n2)[C@@H](O)[C@H]1O)NCC(=O)*)NCCOCCOCCOCCOC[C@H]1OC[C@H](Nc2cncc(C(F)(F)F)n2)[C@@H](O)[C@H]1O; X1 = O=C([C@@H]1C[C@H](N[*:3])CN1[*:1])[*:2]

Columns and labels:
HepG2 cells = experiment: Cellular uptake assay of AF488-labeled antibody (HepG2); assay type: cell-based
Method in brief: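 HepG2 cells given 100 nM AF488-labeled human IgG or DNP antibody plus serial dilutions of matching degrader (0.1% DMSO final), 6 h at 37° C. Methanol-fixed, DAPI-stained and imaged by high-content analysis. Value is the fraction of AF488-positive cells over total DAPI-counted cells.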

IgG = experiment: Affinity to IgG by surface plasmon resonance (SPR); assay type: binding
Protocol: Immobilization levels ranging from 1000-1300 resonance units (RU) are obtained. The running buffer is 10 mM HEPES, pH 7.4, 400 mM NaCl, 0.005% P20, […].

[1] = target: T1, ASGPR receptor on the cell surface (HepG2 cells) (Homo sapiens, UniProt P07306); experiment: Ternary complex formation assay (flow cytometry, HepG2); assay type: cell-based
T1 construct: host or cells: HepG2
T1 sequence (P07306 1-291): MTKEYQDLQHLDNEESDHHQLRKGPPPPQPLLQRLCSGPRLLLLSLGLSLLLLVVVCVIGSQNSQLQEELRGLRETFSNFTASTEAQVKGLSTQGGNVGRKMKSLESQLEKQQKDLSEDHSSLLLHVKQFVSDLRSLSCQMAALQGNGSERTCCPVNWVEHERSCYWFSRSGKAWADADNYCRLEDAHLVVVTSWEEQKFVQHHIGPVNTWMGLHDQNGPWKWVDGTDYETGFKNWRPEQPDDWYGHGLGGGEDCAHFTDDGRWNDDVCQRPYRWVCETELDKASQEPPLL
T1 sequence (P07307 1-311 partner): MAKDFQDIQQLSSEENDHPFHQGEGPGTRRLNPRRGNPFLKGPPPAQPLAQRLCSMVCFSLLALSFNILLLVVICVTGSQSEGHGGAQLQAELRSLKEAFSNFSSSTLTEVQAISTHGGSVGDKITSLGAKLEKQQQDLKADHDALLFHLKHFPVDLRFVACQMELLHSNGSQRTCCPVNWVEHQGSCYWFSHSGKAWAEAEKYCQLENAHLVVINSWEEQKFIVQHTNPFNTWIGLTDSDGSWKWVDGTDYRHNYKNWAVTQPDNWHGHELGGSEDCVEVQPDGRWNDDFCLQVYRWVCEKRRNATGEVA
Method in brief: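 HepG2 cells (1×10^5/well) incubated 1 h at 4 °C with 100 nM AF488-labeled anti-human IgG plus serial IgG-based degrader, or 100 nM AF488 rabbit anti-DNP plus serial DNP-based degrader. After washing, cell-associated AF488 MFI read by flow cytometry; peak MFI marks optimal degrader concentration for ternary complex.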

ASGPR = target: T2, ASGPR (Homo sapiens, UniProt P07306); experiment: Affinity to ASGPR by surface plasmon resonance (SPR)
T2 sequence (P07306 1-291): T1 sequence (P07306 1-291)
Protocol: Biotinylated ASGPR (20 μg/ml) was immobilized on SA sensor chips (GE Healthcare) at flow rate of 5 μl/min for 90 sec reaching an immobilization level ranging from 500-3000 resonance units (RU). The running buffer was 50 mM HEPES, pH7.5, 150 mM NaCl, 50 mM CaCl2), 0.01% P20, 3% DMSO. The concentration of compounds vary from 2 mM to 5 nM depending on Kd values. The compounds are diluted 2 or 3-fold with 8 concentration points. Solutions containing serially diluted compounds are injected at a flow rate of 40 μL/min for 150-300 sec followed by a 90-300 sec dissociation phase for each concentration. The surface was regenerated using 50 mM HEPES, pH 7.5, 150 mM NaCl, 5 mM EDTA, 0.01% P20, 3% DMSO.
Data was processed using the analysis software in Biacore 8K to perform background subtraction, double referencing, and solvent correction. Values of affinity expressed as the dissociation constants (Kd) were determined by fitting the steady state binding responses (RUs) as a function of the concentration ([Compound]) using the following equation: RU=RUmax/(KD+[Compound]), where RU max is the calculated maximal response. Where appropriate double-referenced data were fit to using a 1:1 binding model for kinetic analysis.

[2] = HepG2 cells, read-out: Uptake EC50
[3] = TCF EC50, HepG2 cells, ternary complex formation
[4] = HepG2 cells, 100 nM AF488-labeled antibody, 37° C. for 6 hours, class symbols, read-out: Uptake Assay EC50
[5] = Biacore 8K, 25° C., IgG on CM5 chip, read-out: IgG SPR Binding Kd
[6] = HepG2 cells, ternary complex formation, read-out: TCF EC50

SMILES | EC50 (HepG2 cells; [2]) [µM] | Kd (IgG; SPR, read-out: IgG KD) [µM] | EC50 [1, 3] [µM] | Kd (ASGPR) [µM] | EC50 [1] [µM] | EC50 (HepG2 cells; [4]) [µM] | Kd (IgG; [5]) [µM] | EC50 (HepG2 cells; read-out: Uptake Assay EC50) [µM] | Kd (IgG; read-out: IgG SPR Binding Kd) [µM] | EC50 [1, 6] [µM]
CC(C)C[C@@H]1NC(=O)[C@H](C)NC(=O)CNC(=O)[C@H](CC(C)C)NC(=O)[C@H](Cc2cnc[nH]2)NC(=O)[C@H](Cc2c[nH]c3ccccc23)NC(=O)[C@H](C)NC(=O)[C@@H]2CSSC[C@H](NC(=O)[C@H](Cc3c[nH]c4ccccc34)NC(=O)[C@H](C(C)C)NC1=O)C(=O)N[C@@H]([C@@H](C)O)C(=O)N1CCC[C@@H]1C(=O)N1C[C@@H](NC(=O)CNC(COCCC(=O)NCCOCCOCCOCCOC[C@H]3OC[C@H](Nc4cncc(C(F)(F)F)n4)[C@@H](O)[C@H]3O)COCCC(=O)NCCOCCOCCOCCOC[C@H]3OC[C@H](Nc4cncc(C(F)(F)F)n4)[C@@H](O)[C@H]3O)C[C@H]1C(=O)N[C@@H](C)C(=O)N2 [Compound 76] (cyclo(ACAWHLGALVWCT[dP][X1](X2)); disulfide 2-12) | < 0.1 | < 0.1 | < 0.1 | < 0.1 | – | – | – | – | – | –
CC(=O)N[C@H]1[C@H](OCCOCCOCCOCCNC(=O)CCOCC(COCCC(=O)NCCOCCOCCOCCO[C@@H]2O[C@H](CO)[C@H](O)[C@H](O)[C@H]2NC(C)=O)NC(=O)CCCCCn2cc(CCCC(=O)NCCOCCOCCOCCOCCC(=O)N[C@H]3C[C@H]4C(=O)N[C@@H](CC(=O)O)C(=O)N[C@H]5CSSC[C@H](NC(=O)[C@H](Cc6c[nH]c7ccccc67)NC(=O)[C@H](C(C)C)NC(=O)[C@H](CC(C)C)NC(=O)[C@H](CCC(=O)O)NC(=O)CNC(=O)[C@H](CC(C)C)NC(=O)[C@H](Cc6c[nH]cn6)NC(=O)[C@H](Cc6c[nH]c7ccccc67)NC(=O)[C@H](C)NC5=O)C(=O)N[C@@H]([C@@H](C)O)C(=O)N5CCC[C@@H]5C(=O)N4C3)nn2)O[C@H](CO)[C@H](O)[C@@H]1O [Compound 84] | > 1 | < 0.1 | – | > 1 | > 1 | – | – | – | – | –
CC(C)C[C@@H]1NC(=O)[C@H](Cc2cnc[nH]2)NC(=O)[C@H](Cc2c[nH]c3ccccc23)NC(=O)[C@H](C)NC(=O)[C@@H]2CSSC[C@H](NC(=O)[C@H](Cc3c[nH]c4ccccc34)NC(=O)[C@H](C(C)C)NC(=O)[C@H](CC(C)C)NC(=O)[C@H](CCC(=O)O)NC(=O)CNC1=O)C(=O)N[C@@H]([C@@H](C)O)C(=O)N1CCC[C@@H]1C(=O)N1C[C@@H](NC(=O)CCOCCNC(=O)CCCc3cn(C[C@@]45CO[C@@H](O4)[C@H](Nc4nc(Cl)ns4)[C@@H](O)[C@H]5O)nn3)C[C@H]1C(=O)N[C@@H](CC(=O)O)C(=O)N2 [Compound 7] | – | – | – | < 0.1 | < 0.1 | 0.1 to 0.5 | < 0.1 | – | – | –
CC(C)C[C@@H]1NC(=O)[C@H](Cc2c[nH]cn2)NC(=O)[C@H](Cc2c[nH]c3ccccc23)NC(=O)[C@H](C)NC(=O)[C@@H](NC(=O)[C@H](CC(=O)O)NCCOCCOCCOCCOCCNC(=O)CCCc2cn(CCCCCC(=O)NC(COCCC(=O)NCCOCCOCCOCCOC[C@H]3OC[C@H](Nc4nccc(C(F)(F)F)n4)[C@@H](O)[C@H]3O)COCCC(=O)NCCOCCOCCOCCOC[C@H]3OC[C@H](Nc4nccc(C(F)(F)F)n4)[C@@H](O)[C@H]3O)nn2)CSSC[C@@H](C(=O)N[C@H](C(N)=O)[C@@H](C)O)NC(=O)[C@H](Cc2c[nH]c3ccccc23)NC(=O)[C@H](C(C)C)NC(=O)[C@H](CC(C)C)NC(=O)[C@H](CCC(=O)O)NC(=O)CNC1=O [Compound 10] | – | – | – | < 0.1 | < 0.1 | – | – | < 0.1 | < 0.1 | –
CC(C)C[C@@H]1NC(=O)[C@H](Cc2c[nH]cn2)NC(=O)[C@H](Cc2c[nH]c3ccccc23)NC(=O)[C@H](C)NC(=O)[C@@H]2CSSC[C@H](NC(=O)[C@H](Cc3c[nH]c4ccccc34)NC(=O)[C@H](C(C)C)NC(=O)[C@H](CC(C)C)NC(=O)[C@H](CCC(=O)O)NC(=O)CNC1=O)C(=O)N[C@@H]([C@@H](C)O)C(=O)N1CCC[C@@H]1C(=O)N1C[C@@H](NC(=O)CCOCCNC(=O)CCCc3cn(CCCCCC(=O)NC(COCCC(=O)NCCOCCOCCOCCOC[C@@]45CO[C@@H](O4)[C@H](Nc4nc(Cl)ns4)[C@@H](O)[C@H]5O)COCCC(=O)NCCOCCOCCOCCOC[C@@]45CO[C@@H](O4)[C@H](Nc4nc(Cl)ns4)[C@@H](O)[C@H]5O)nn3)C[C@H]1C(=O)N[C@@H](CC(=O)O)C(=O)N2 [Compound 9] | – | – | – | < 0.1 | < 0.1 | < 0.1 | < 0.1 | – | – | –
CC(C)C[C@@H]1NC(=O)[C@H](C)NC(=O)CNC(=O)[C@H](CC(C)C)NC(=O)[C@H](Cc2c[nH]cn2)NC(=O)[C@H](Cc2c[nH]c3ccccc23)NC(=O)[C@H](C)NC(=O)[C@@H]2CSSC[C@H](NC(=O)[C@H](Cc3c[nH]c4ccccc34)NC(=O)[C@H](C(C)C)NC1=O)C(=O)N[C@@H]([C@@H](C)O)C(=O)N1CCC[C@@H]1C(=O)N1C[C@@H](NC(=O)CNC(COCCC(=O)NCCOCCOCCOCCOC[C@H]3OC[C@H](Nc4cncc(C(F)(F)F)n4)[C@@H](O)[C@H]3O)COCCC(=O)NCCOCCOCCOCCOC[C@H]3OC[C@H](Nc4cncc(C(F)(F)F)n4)[C@@H](O)[C@H]3O)C[C@H]1C(=O)N[C@@H](CC(N)=O)C(=O)N2 [Compound 79] (cyclo(ALVWCT[dP][X1](X2)NCAWHLG); disulfide 5-10) | < 0.1 | < 0.1 | < 0.1 | < 0.1 | – | – | – | – | – | –
CC(C)C[C@@H]1NC(=O)[C@H](Cc2cnc[nH]2)NC(=O)[C@H](Cc2c[nH]c3ccccc23)NC(=O)[C@H](C)NC(=O)[C@@H]2CSSC[C@H](NC(=O)[C@H](Cc3c[nH]c4ccccc34)NC(=O)[C@H](C(C)C)NC(=O)[C@H](CC(C)C)NC(=O)[C@H](CCC(=O)O)NC(=O)CNC1=O)C(=O)N[C@@H]([C@@H](C)O)C(=O)N1CCC[C@@H]1C(=O)N1C[C@@H](NC(=O)c3ccc(N4CCC(CN5CCN(C[C@H]6OC[C@H](Nc7cncc(C(F)(F)F)n7)[C@@H](O)[C@H]6O)CC5)CC4)nn3)C[C@H]1C(=O)N[C@@H](CC(=O)O)C(=O)N2 [Compound 66] | < 0.1 | < 0.1 | – | < 0.1 | – | – | – | – | – | < 0.1
CC(C)C[C@@H]1NC(=O)[C@H](Cc2cnc[nH]2)NC(=O)[C@H](Cc2c[nH]c3ccccc23)NC(=O)[C@H](C)NC(=O)[C@@H]2CSSC[C@H](NC(=O)[C@H](Cc3c[nH]c4ccccc34)NC(=O)[C@H](C(C)C)NC(=O)[C@H](CC(C)C)NC(=O)[C@H](CCC(=O)O)NC(=O)CNC1=O)C(=O)N[C@@H]([C@@H](C)O)C(=O)N1CCC[C@@H]1C(=O)N1C[C@@H](NC(=O)CC(=O)NC[C@H]3OC[C@H](Nc4cncc(C(F)(F)F)n4)[C@@H](O)[C@H]3O)C[C@H]1C(=O)N[C@@H](CC(=O)O)C(=O)N2 [Compound 62] | < 0.1 | < 0.1 | – | < 0.1 | – | – | – | – | – | < 0.1
